{
  "source": "patent US20220298493A1",
  "about": "“INACTIVATION PROCESS FOR VIRUSES” (priority 2019, published 2022)",
  "system": "Chikungunya virus",
  "conditions": "200 ppm formaldehyde, 22° C.",
  "note": "Where two headings read alike, the source gives them in different places.",
  "data": [
    {"smiles": "C=O", "note": "[formaldehyde]", "values": [
      {"measurement": "reduction of virus titer (TCID50)", "setting": "after ~9 h", "value": 99, "unit": "%"},
      {"measurement": "reduction of virus titer (TCID50)", "setting": "after ~15 h", "value": 99.9, "unit": "%"}
    ]}
  ]
}
